Data on twelve molecules can be found in ChEMBL document CHEMBL1201862, “PubChem BioAssay data set” (2004).

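Growth conditions: 96-well plates. Treatment: test compound, 48 hours, 5 concentrations. Analysis: linear interpolation between bracketing concentrations; unreached endpoints set to highest concentration. GI50 is the concentration that inhibits growth by half.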 Calls of active or inactive are those of the source. Cut-off read from the data, not from the text of the source: active = GI50 up to about 1.1 µM and inactive = higher.

What all share (test): NCI-60 cell line screen, 48 h
Experiment [1] has as its system A549.
The subject of experiment [2] is EKVX.
Experiment [3] concerns HCT-15.
Experiment [4] relates to HT-29.
Experiment [5] relates to MDA-MB-231.
Experiment [6] relates to MDA-N.
Experiment [7] deals with NCI-H226.
For experiment [8], the system named is NCI/ADR-RES.
Experiment [9] deals with OVCAR-5.
Experiment [10] concerns OVCAR-8.
The subject of experiment [11] is SF-295.
Experiment [12] relates to SF-539.
In experiment [13] the test system is SK-MEL-2.
The test system of experiment [14] is SN12C.
Experiment [15] relates to SW-620.
For experiment [16], the system named is U-251.
For experiment [17], the system named is HOP-92.
The test system of experiment [18] is RXF 393.
In experiment [19] the test system is UO-31.

Consider `Nc1cc(OCc2ccccc2)c(OCc2ccccc2)cc1C=O`, for which the GI50 in experiment [1] was 23.8 µM (inactive); in [2], 24.4 µM (inactive); in experiment [3] it was 19.8 µM; in experiment [4] it was 22.9 µM (inactive); in experiment [5] it was 44.2 µM (inactive); in [6], 39.5 µM (inactive). Besides, the GI50 is 44 µM (inactive) in experiment [7]; 33 µM (inactive) in [8]; 55.2 µM (inactive) in experiment [9]; 26.4 µM (inactive) in [10]; 31.4 µM (inactive) in [11]; 5.83 µM (inactive) in experiment [12]. In addition, the GI50 is 28.2 µM (inactive) in experiment [13], 28.1 µM (inactive) in experiment [14], 46.2 µM (inactive) in experiment [15] and 28.4 µM (inactive) in experiment [16].
As to `CC(C)C1CSC2N1C(=O)C2(OCc1ccccc1)C1CC1` (stereo not drawn), the GI50 was > 100 µM (inactive) in experiment [1]; > 100 µM (inactive) in [2]; above 100 µM in [3]; > 100 µM (inactive) in experiment [17]; > 100 µM (inactive) in experiment [4]; > 100 µM (inactive) in [5]. Moreover, the GI50 in experiment [6] was > 100 µM (inactive); in experiment [7] it was > 100 µM (inactive); in [8], 63.4 µM (inactive); in [9], > 100 µM (inactive); in experiment [10], > 100 µM (inactive); in [18], > 100 µM (inactive). The GI50 in experiment [11], in experiment [12], in experiment [14], in [15], in experiment [16] and in [19] was > 100 µM (inactive) in each case.
As for `COc1ccc(-n2cnc3c(NCC(=O)O)ncnc32)cc1`, the GI50 in experiment [1] is > 100 µM (inactive); in [2] it was > 100 µM (inactive); in [3], above 100 µM; in experiment [17] it was > 100 µM (inactive); in experiment [4], > 100 µM (inactive); in [5] it was > 100 µM (inactive). The GI50 in experiment [6], in experiment [7], in experiment [8], in [9], in experiment [10] and in [11] was > 100 µM (inactive) throughout. Further, the GI50 in experiment [13], in experiment [14], in experiment [15], in [16] and in experiment [19] was > 100 µM (inactive) throughout.
In the case of `Cc1c2c(n(CCc3ccc(Cl)cc3)c1C)NC(c1ccccc1)C(C#N)S2(=O)=O` (stereo not drawn), the GI50 in experiment [1] was 22.5 µM (inactive); in experiment [2], 31.3 µM (inactive); in [3], above 48 µM; in [17] it was 17.5 µM (inactive); in experiment [4], 11.9 µM (inactive); in experiment [5], 11.5 µM (inactive). Also, the GI50 in [6] is 19.9 µM (inactive); in experiment [7], > 59.7 µM (inactive); in experiment [8], > 63 µM (inactive); in experiment [9] it was > 100 µM (inactive); in experiment [10] it was 47 µM (inactive); in experiment [11], > 53.5 µM (inactive). Also, the GI50 in [12] is 34.8 µM (inactive); in [13] it was 22.4 µM (inactive); in experiment [14], > 72.1 µM (inactive); in experiment [15], > 45.9 µM (inactive); in experiment [16], 38.2 µM (inactive); in experiment [19], 13.9 µM (inactive).
For `COc1cc(NS(C)(=O)=O)ccc1Nc1ccnc2ccc3[nH]ccc3c12`, the GI50 in experiment [1] is 18.3 µM (inactive); in experiment [2], 19.4 µM (inactive); in experiment [3], 58.3 µM; in experiment [17] it was 11.9 µM (inactive); in experiment [4] it was 16.8 µM (inactive); in experiment [5] it was 11.6 µM (inactive). Moreover, the GI50 in experiment [6] was 16.2 µM (inactive); in [7] it was 18.9 µM (inactive); in [8], > 100 µM (inactive); in experiment [9], 16.6 µM (inactive); in [10] it was 13.6 µM (inactive); in experiment [11] it was 18.2 µM (inactive). Further, the GI50 is 16.7 µM (inactive) in experiment [13]; 14.4 µM (inactive) in [14]; 13.3 µM (inactive) in experiment [15]; 14 µM (inactive) in experiment [16]; 40.2 µM (inactive) in [19].
For `CCc1n[nH]c(=O)n1-c1ccncc1`, the GI50 was > 100 µM (inactive) in [1]; > 100 µM (inactive) in [2]; above 100 µM in experiment [3]; > 100 µM (inactive) in experiment [17]; > 100 µM (inactive) in experiment [4]; > 100 µM (inactive) in experiment [5]. Also, the GI50 in experiment [6], in experiment [7], in experiment [8], in experiment [9], in experiment [10] and in [18] was > 100 µM (inactive) in each case. In addition, the GI50 in experiment [11], in [12], in experiment [14], in experiment [15], in [16] and in [19] was > 100 µM (inactive) throughout.
With `CC(C)(O)C1OCC(C2CCC3(C)C4=CCC5C(C)(C)C(O)CCC5(C)C4CCC23C)CC1O` (stereo not drawn), the GI50 in [1] is 14.1 µM (inactive); in [2], 17.2 µM (inactive); in experiment [3], 14.8 µM; in experiment [17] it was 12.6 µM (inactive); in experiment [4], 13.1 µM (inactive); in [5], 15.3 µM (inactive). Besides, the GI50 in experiment [6] is 16.6 µM (inactive); in [7], 13 µM (inactive); in experiment [8] it was 12.6 µM (inactive); in experiment [9], 19.5 µM (inactive); in experiment [10], 14.4 µM (inactive); in experiment [11] it was 13.9 µM (inactive). Besides, the GI50 in [12] was 13.6 µM (inactive); in experiment [13], 22.8 µM (inactive); in [14], 14.4 µM (inactive); in experiment [15], 15.2 µM (inactive); in [16] it was 14.4 µM (inactive); in experiment [19] it was 16 µM (inactive).
`COc1ccc2c(c1)/C(=C\c1c(C)nc3n1CCS3)C(=O)N2`: the GI50 in experiment [1] is 24.1 µM (inactive); in experiment [2], 34.5 µM (inactive); in experiment [3], 9.4 µM; in experiment [17] it was 34.4 µM (inactive); in [4], 12.6 µM (inactive); in experiment [5] it was 30.5 µM (inactive). The GI50 in experiment [6] was 3.29 µM (inactive); in experiment [8], 26.8 µM (inactive); in experiment [9] it was 42.3 µM (inactive); in [10] it was 37 µM (inactive); in experiment [18], 40.7 µM (inactive); in [11], 16.4 µM (inactive). Besides, the GI50 in experiment [12] was 18.3 µM (inactive); in [13], 29 µM (inactive); in experiment [14] it was 26.5 µM (inactive); in experiment [15], 9.79 µM (inactive); in experiment [16], 22.1 µM (inactive); in [19], 34.3 µM (inactive).
On to `O=c1cc(N2CCOCC2)[nH]c(=O)n1-c1cccc(C(F)(F)F)c1`, for which the GI50 in [1] was > 100 µM (inactive); in experiment [2], > 100 µM (inactive); in experiment [3] it was above 100 µM; in experiment [17] it was > 100 µM (inactive); in experiment [4], > 100 µM (inactive); in [5] it was 20.7 µM (inactive). Also, the GI50 in experiment [6], in experiment [7], in experiment [8], in [9], in [10] and in [11] was > 100 µM (inactive) throughout. For the same molecule, the GI50 in experiment [12] was > 100 µM (inactive); in [13], 43.3 µM (inactive); in experiment [14], > 100 µM (inactive); in experiment [15] it was > 100 µM (inactive); in experiment [16] it was 64.7 µM (inactive); in [19], > 100 µM (inactive).
For `C=CCN(c1cc(OC)c2[nH]cc(C)c2c1[N+](=O)[O-])S(C)(=O)=O`, the GI50 in experiment [1] was > 100 µM (inactive); in [2] it was > 100 µM (inactive); in [3], above 100 µM; in experiment [5] it was > 100 µM (inactive); in experiment [6] it was > 100 µM (inactive); in experiment [7] it was > 100 µM (inactive). Further, the GI50 in experiment [8], in experiment [9], in experiment [10], in experiment [18], in experiment [11] and in [12] was > 100 µM (inactive) throughout. Besides, the GI50 in experiment [13], in experiment [14], in experiment [15], in experiment [16] and in [19] was > 100 µM (inactive) in each case.
For `CCCCCCCCCCCCCCCCOCC(CC(F)(F)P(=O)(O)O)OC(C)=O` (stereo not drawn), the GI50 in experiment [1] is > 50 µM (inactive); in experiment [2], > 50 µM (inactive); in experiment [3] it was above 50 µM; in experiment [17] it was > 50 µM (inactive); in experiment [4], > 50 µM (inactive); in [5] it was > 50 µM (inactive). The GI50 in experiment [6], in experiment [7], in [8], in experiment [9], in experiment [11] and in experiment [13] was > 50 µM (inactive) each time. Also, the GI50 in experiment [14], in [15], in experiment [16] and in experiment [19] was > 50 µM (inactive) each time.
Consider `c1ccc([P+](c2ccccc2)(c2ccccc2)c2ccc(-c3ccc([P+](c4ccccc4)(c4ccccc4)c4ccccc4)cc3)cc2)cc1`, for which the GI50 in experiment [1] was 27.7 µM (inactive); in [2], 37 µM (inactive); in experiment [3], above 100 µM; in experiment [4] it was 20.7 µM (inactive); in experiment [5], 32.8 µM (inactive); in [6], 29.3 µM (inactive). Further, the GI50 in experiment [7] was 30.8 µM (inactive); in experiment [8], > 100 µM (inactive); in experiment [9] it was 67.5 µM (inactive); in experiment [10], 19.4 µM (inactive); in [18] it was 48.1 µM (inactive); in experiment [11], 30.2 µM (inactive). The GI50 is 40 µM (inactive) in [12]; 24.3 µM (inactive) in experiment [13]; 26.5 µM (inactive) in experiment [14]; 30.6 µM (inactive) in experiment [15]; 7.94 µM (inactive) in experiment [16].
